Assay results reported in US20230085307A1, “PYRIDAZINONE COMPOUND AND HERBICIDE” (NISSAN CHEMICAL CORPORATION, priority 2019, published 2023).

Columns and labels:
[1] = test system: southern crabgrass; experiment: Test Example 4: herbicidal effect by soil treatment (Table 19, symbol F); assay type: in vivo, southern crabgrass (Digitaria ciliaris); details: amount of applied herbicide 320 g/ha
In short: (§1)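 Scoring uses the grading scale of an earlier test, three weeks post-application. Treatment consists of spraying a diluted emulsion formulation across the surface of sterilized diluvial soil in which seeds are buried near 1.5 cm deep; boxes are kept in a greenhouse between 25° C. and 30° C.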

[2] = test system: southern crabgrass; experiment: Test Example 5: herbicidal effect by foliage application, plastic box (Table 20, symbol F); assay type: in vivo, southern crabgrass (Digitaria ciliaris); details: foliage application, 320 g/ha, three weeks after application
In short: (§2)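 Post-emergence foliar test in sterilized diluvial soil. Compound applied as water-diluted emulsion at a predetermined rate to 14-day-old plants; evaluation at three weeks.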

[3] = test system: persian speedwell; experiment: Test Example 5: herbicidal effect by foliage application, plastic box (Table 20, symbol R); assay type: in vivo, Persian speedwell (Veronica persica); details: foliage application, 320 g/ha, three weeks after application
In short: as §2

[4] = test system: lambsquarters; experiment: Test Example 4: herbicidal effect by soil treatment (Table 19, symbol O); assay type: in vivo, lambsquarters (Chenopodium album); details: amount of applied herbicide 320 g/ha
In short: as §1

[5] = test system: velvetleaf; experiment: Test Example 4: herbicidal effect by soil treatment (Table 19, symbol M); assay type: in vivo, velvetleaf (Abutilon theophrasti); details: amount of applied herbicide 320 g/ha
In short: as §1

[6] = test system: barnyard grass; experiment: Test Example 3: herbicidal effect by foliage application, Wagner pot (Table 18, symbol H); assay type: in vivo, barnyard grass (Echinochloa crus-galli); details: 320 g/ha
In short: (§3)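 Plants were sown in alluvial soil held under 0.1–0.5 cm standing water and grown 14 days in a greenhouse at 25–30 °C. An emulsifiable formulation, water-diluted to the set dose, was then sprayed onto the foliage, and effects were scored three weeks later using previously defined criteria.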

[7] = test system: Italian ryegrass; experiment: Test Example 4: herbicidal effect by soil treatment (Table 19, symbol K); assay type: in vivo, Italian ryegrass (Lolium multiflorum); details: amount of applied herbicide 320 g/ha
In short: as §1

[8] = test system: wild oat; experiment: Test Example 5: herbicidal effect by foliage application, plastic box (Table 20, symbol I); assay type: in vivo, wild oat (Avena fatua); details: foliage application, 320 g/ha, three weeks after application
In short: as §2

[9] = test system: chickweed; experiment: Test Example 5: herbicidal effect by foliage application, plastic box (Table 20, symbol P); assay type: in vivo, common chickweed (Stellaria media); details: foliage application, 320 g/ha, three weeks after application
In short: as §2

[10] = test system: windgrass; experiment: Test Example 4: herbicidal effect by soil treatment (Table 19, symbol L); assay type: in vivo, windgrass (Apera spica-venti); details: amount of applied herbicide 320 g/ha
In short: as §1

[11] = test system: rice flat sedge; experiment: Test Example 3: herbicidal effect by foliage application, Wagner pot (Table 18, symbol E); assay type: in vivo, rice flat sedge (Cyperus iria); details: 320 g/ha
In short: as §3

[12] = test system: persian speedwell; experiment: Test Example 4: herbicidal effect by soil treatment (Table 19, symbol R); assay type: in vivo, Persian speedwell (Veronica persica); details: amount of applied herbicide 320 g/ha
In short: as §1

[13] = test system: windgrass; experiment: Test Example 5: herbicidal effect by foliage application, plastic box (Table 20, symbol L); assay type: in vivo, windgrass (Apera spica-venti); details: foliage application, 320 g/ha, three weeks after application
In short: as §2

[14] = test system: green foxtail; experiment: Test Example 4: herbicidal effect by soil treatment (Table 19, symbol G); assay type: in vivo, green foxtail (Setaria viridis); details: amount of applied herbicide 320 g/ha
In short: as §1

[15] = test system: redroot pigweed; experiment: Test Example 4: herbicidal effect by soil treatment (Table 19, symbol N); assay type: in vivo, redroot pigweed (Amaranthus retroflexus); details: amount of applied herbicide 320 g/ha
In short: as §1

[16] = test system: chickweed; experiment: Test Example 4: herbicidal effect by soil treatment (Table 19, symbol P); assay type: in vivo, common chickweed (Stellaria media); details: amount of applied herbicide 320 g/ha
In short: as §1

[17] = test system: Chinese sprangletop; experiment: Test Example 3: herbicidal effect by foliage application, Wagner pot (Table 18, symbol D); assay type: in vivo, chinese sprangletop (Leptochloa chinensis); details: 320 g/ha
In short: as §3

[18] = test system: blackgrass; experiment: Test Example 5: herbicidal effect by foliage application, plastic box (Table 20, symbol J); assay type: in vivo, blackgrass (Alopecurus myosuroides); details: foliage application, 320 g/ha, three weeks after application
In short: as §2

[19] = test system: lambsquarters; experiment: Test Example 5: herbicidal effect by foliage application, plastic box (Table 20, symbol O); assay type: in vivo, lambsquarters (Chenopodium album); details: foliage application, 320 g/ha, three weeks after application
In short: as §2

[20] = test system: redroot pigweed; experiment: Test Example 5: herbicidal effect by foliage application, plastic box (Table 20, symbol N); assay type: in vivo, redroot pigweed (Amaranthus retroflexus); details: foliage application, 320 g/ha, three weeks after application
In short: as §2

[21] = test system: Italian ryegrass; experiment: Test Example 5: herbicidal effect by foliage application, plastic box (Table 20, symbol K); assay type: in vivo, Italian ryegrass (Lolium multiflorum); details: foliage application, 320 g/ha, three weeks after application
In short: as §2

[22] = test system: blackgrass; experiment: Test Example 4: herbicidal effect by soil treatment (Table 19, symbol J); assay type: in vivo, blackgrass (Alopecurus myosuroides); details: amount of applied herbicide 320 g/ha
In short: as §1

[23] = test system: green foxtail; experiment: Test Example 5: herbicidal effect by foliage application, plastic box (Table 20, symbol G); assay type: in vivo, green foxtail (Setaria viridis); details: foliage application, 320 g/ha, three weeks after application
In short: as §2

[24] = test system: wild oat; experiment: Test Example 4: herbicidal effect by soil treatment (Table 19, symbol I); assay type: in vivo, wild oat (Avena fatua); details: amount of applied herbicide 320 g/ha
In short: as §1

[25] = test system: barnyard grass; experiment: Test Example 4: herbicidal effect by soil treatment (Table 19, symbol H); assay type: in vivo, barnyard grass (Echinochloa crus-galli); details: amount of applied herbicide 320 g/ha
In short: as §1

[26] = test system: barnyard grass; experiment: Test Example 5: herbicidal effect by foliage application, plastic box (Table 20, symbol H); assay type: in vivo, barnyard grass (Echinochloa crus-galli); details: foliage application, 320 g/ha, three weeks after application
In short: as §2

[27] = test system: velvetleaf; experiment: Test Example 5: herbicidal effect by foliage application, plastic box (Table 20, symbol M); assay type: in vivo, velvetleaf (Abutilon theophrasti); details: foliage application, 320 g/ha, three weeks after application
In short: as §2

Compound | F: southern crabgrass, herbicidal effect grade [1] | F: southern crabgrass, herbicidal effect grade [2] | R: persian speedwell, herbicidal effect grade [3] | O: lambsquarters, herbicidal effect grade [4] | M: velvetleaf, herbicidal effect grade [5] | herbicidal effect on barnyard grass (H) [6] | K: Italian ryegrass, herbicidal effect grade [7] | I: wild oat, herbicidal effect grade [8] | P: chickweed, herbicidal effect grade [9] | L: windgrass, herbicidal effect grade [10] | herbicidal effect on rice flat sedge (E) [11] | R: persian speedwell, herbicidal effect grade [12] | L: windgrass, herbicidal effect grade [13] | G: green foxtail, herbicidal effect grade [14] | N: redroot pigweed, herbicidal effect grade [15] | P: chickweed, herbicidal effect grade [16] | herbicidal effect on Chinese sprangletop (D) [17] | J: blackgrass, herbicidal effect grade [18] | O: lambsquarters, herbicidal effect grade [19] | N: redroot pigweed, herbicidal effect grade [20] | also measured
CCCC(=O)Oc1c(C)nn(C)c(=O)c1-c1c(-c2ccccc2OC)sc2cc(Cl)ccc12 [3-036] | 1 (Herbicidal rate of 5% or more and less than 20%) | 1 (Herbicidal rate of 5% or more and less than 20%) | 5 (Herbicidal rate of 90% or more (almost completely withered)) | 3 (Herbicidal rate of 40% or more and less than 70%) | 2 (Herbicidal rate of 20% or more and less than 40%) | 5 (Herbicidal rate of 90% or more (almost completely withered)) | 0 (Herbicidal rate of 5% or less (almost no effect)) | 1 (Herbicidal rate of 5% or more and less than 20%) | 5 (Herbicidal rate of 90% or more (almost completely withered)) | 3 (Herbicidal rate of 40% or more and less than 70%) | 4 (Herbicidal rate of 70% or more and less than 90%) | 3 (Herbicidal rate of 40% or more and less than 70%) | 0 (Herbicidal rate of 5% or less (almost no effect)) | 2 (Herbicidal rate of 20% or more and less than 40%) | 5 (Herbicidal rate of 90% or more (almost completely withered)) | 3 (Herbicidal rate of 40% or more and less than 70%) | 0 (Herbicidal rate of 5% or less (almost no effect)) | 0 (Herbicidal rate of 5% or less (almost no effect)) | 3 (Herbicidal rate of 40% or more and less than 70%) | 5 (Herbicidal rate of 90% or more (almost completely withered)) | K: Italian ryegrass, herbicidal effect grade [21]: 0 (Herbicidal rate of 5% or less (almost no effect)); J: blackgrass, herbicidal effect grade [22]: 0 (Herbicidal rate of 5% or less (almost no effect)); G: green foxtail, herbicidal effect grade [23]: 3 (Herbicidal rate of 40% or more and less than 70%); I: wild oat, herbicidal effect grade [24]: 0 (Herbicidal rate of 5% or less (almost no effect)); H: barnyard grass, herbicidal effect grade [25]: 3 (Herbicidal rate of 40% or more and less than 70%); H: barnyard grass, herbicidal effect grade [26]: 5 (Herbicidal rate of 90% or more (almost completely withered)); M: velvetleaf, herbicidal effect grade [27]: 4 (Herbicidal rate of 70% or more and less than 90%)
COc1ccc(-c2sc3cc(Cl)ccc3c2-c2c(O)c(C)nn(C)c2=O)cc1 [3-037] | 0 (Herbicidal rate of 5% or less (almost no effect)) | 0 (Herbicidal rate of 5% or less (almost no effect)) | 5 (Herbicidal rate of 90% or more (almost completely withered)) | 3 (Herbicidal rate of 40% or more and less than 70%) | 0 (Herbicidal rate of 5% or less (almost no effect)) | 4 (Herbicidal rate of 70% or more and less than 90%) | 0 (Herbicidal rate of 5% or less (almost no effect)) | 0 (Herbicidal rate of 5% or less (almost no effect)) | 5 (Herbicidal rate of 90% or more (almost completely withered)) | 0 (Herbicidal rate of 5% or less (almost no effect)) | 4 (Herbicidal rate of 70% or more and less than 90%) | 3 (Herbicidal rate of 40% or more and less than 70%) | 0 (Herbicidal rate of 5% or less (almost no effect)) | 0 (Herbicidal rate of 5% or less (almost no effect)) | 0 (Herbicidal rate of 5% or less (almost no effect)) | 3 (Herbicidal rate of 40% or more and less than 70%) | 3 (Herbicidal rate of 40% or more and less than 70%) | 0 (Herbicidal rate of 5% or less (almost no effect)) | 4 (Herbicidal rate of 70% or more and less than 90%) | 5 (Herbicidal rate of 90% or more (almost completely withered)) | K: Italian ryegrass, herbicidal effect grade [21]: 0 (Herbicidal rate of 5% or less (almost no effect)); J: blackgrass, herbicidal effect grade [22]: 0 (Herbicidal rate of 5% or less (almost no effect)); G: green foxtail, herbicidal effect grade [23]: 0 (Herbicidal rate of 5% or less (almost no effect)); I: wild oat, herbicidal effect grade [24]: 0 (Herbicidal rate of 5% or less (almost no effect)); H: barnyard grass, herbicidal effect grade [25]: 0 (Herbicidal rate of 5% or less (almost no effect)); H: barnyard grass, herbicidal effect grade [26]: 0 (Herbicidal rate of 5% or less (almost no effect)); M: velvetleaf, herbicidal effect grade [27]: 5 (Herbicidal rate of 90% or more (almost completely withered))
